Measured values published in patent US20110201642A1, “Bioactive Compounds” (priority 2008, published 2011).
Where two headings read alike, the source gives them in different places.

What was measured:
Format in all cases: cell-based
[1] = test system: HCT116 (ATCC CCL-247) human colon cancer cell line; assay: MTT cytotoxic assay against HCT116 (96 h)
Procedure: (§1) Human breast cancer, MCF7 (ATCC HTB-22) and human colon cancer, HCT116 (ATCC CCL-247) cell lines were all maintained in RPMI 1640 (Sigma), supplemented with 10% Foetal Bovine Serum (FBS, PAA Laboratories). Cells of 80-85% confluence were harvested and plated onto 96-flat bottom well plates for experimental use. In all experiments, cells were incubated in a CO2 incubator at 37° C. with 5% CO2 overnight prior to treatment.
(§2) Compounds were tested against MCF7 and HCT116 and incubated for 96 h before cytotoxic assay using the MTT (3-(4,5-dimethylthiazole-2-yl)-2,5-diphenyltetrazolium bromide) assay according to Mosmann (J. Immunol Meth. 65 (1983) 55-63). Plates were read using an Elisa plate reader at 520 nm. Data generated was used to plot a dose response curve. Cytotoxic activity was expressed as the mean concentration of extract required to kill 50% of the cell population (IC50).

[2] = test system: MCF7 (ATCC HTB-22) human breast cancer cell line; assay: MTT cytotoxic assay against MCF7 (96 h); details: for IC50: Homo sapiens, MCF7, 96 h
Procedure: as §1, §2

[3] = test system: P388 murine leukemia cell line; assay: Cytotoxicity against P388 murine leukemia cell line; details: for IC50: Mus musculus, P388 murine leukemia
Procedure: The Compounds A1-A5 were assayed against three cell lines: murine leukemia, P388; human breast cancer, MCF7 (ATCC HTB-22); and human colon cancer, HCT116 (ATCC CCL-247).

[4] = Homo sapiens, HCT-116, 96 h, read-out: IC50 (nM) HCT116
[5] = Homo sapiens, HCT-116, 96 h, read-out: IC50 (ng/mL) HCT116

SMILES	IC50 ([1]; HCT-116, HCT116 human colon cancer, MTT, 96 h, read-out: IC50 (ng/mL) HCT116) [ng/mL]	IC50 ([2]; read-out: IC50 (nM) MCF7) [nM]	IC50 ([2]; read-out: IC50 (ng/mL) MCF7) [ng/mL]	IC50 [1, 4] [nM]	IC50 [1, 5] [ng/mL]	IC50 ([3]; read-out: IC50 (nM) P388) [nM]	IC50 ([3]; read-out: IC50 (ng/mL) P388) [ng/mL]	factor between the least active, Compound A2, and the most active, Compound A5 ([3]; P388 data)	IC50 (ng/mL) MCF7 ([2]; MCF7 human breast cancer, MTT, 96 h) [ng/mL]	IC50 (ng/mL) HCT116 ([1]; HCT116 human colon cancer, MTT, 96 h) [ng/mL]
O=c1[nH]cc(F)c(=O)[nH]1 [5-fluorouracil, reference compound]	910									
C=CC(C)CC1NC(=O)C(C(O)C(C)C)N(C)C(=O)C(C)N(C)C(=O)C(C(C)C)NC(=O)C(C(O)C(C)C)NC(=O)C2CCCCN2C(=O)C(C)N(C)C1=O (stereo not shown) [Compound A1]		8.1	6.5	5.9	4.7	3.8	3			
CCC(C)C1NC(=O)C(C(O)C(C)C)NC(=O)C2CCCCN2C(=O)C(C)N(C)C(=O)C(CC(C)C)NC(=O)C(C(O)C(C)C)N(C)C(=O)C(C)N(C)C1=O (stereo not shown) [Compound A2]		8.3	6.6	11.6	9.3	56	45			
C=CC(C)CC1NC(=O)C(C(O)C(C)C)N(C)C(=O)C(C)N(C)C(=O)C(C(C)CC)NC(=O)C(C(O)C(C)C)NC(=O)C2CCCCN2C(=O)C(C)N(C)C1=O (stereo not shown) [Compound A3]		0.9	0.73	0.3	0.2	1.3	1			
CCC(C)CC1NC(=O)C(C(O)C(C)C)N(C)C(=O)C(C)N(C)C(=O)C(C(C)CC)NC(=O)C(C(O)C(C)C)NC(=O)C2CCCCN2C(=O)C(C)N(C)C1=O (stereo not shown) [Compound A4]		7.1	5.7	3.9	3.1	24	19			
C=CC(C)CC1NC(=O)C(C(O)C(C)CC)N(C)C(=O)C(C)N(C)C(=O)C(C(C)CC)NC(=O)C(C(O)C(C)C)NC(=O)C2CCCCN2C(=O)C(C)N(C)C1=O (stereo not shown) [Compound A5]		1	0.8	0.3	0.2	0.13	0.1	~450		
N.N.[Cl][Pt][Cl] [cisplatin, reference compound]									8705	1650
